The values that follow come from ChEMBL document CHEMBL1145001, “Angiotensin II AT1 receptor antagonists. Clinical implications of active metabolites” (J Med Chem, 2003).

Data set [1] in a line: Renal clearance value was evaluated. Type of data set: ADME, organism-based, Kidney. To be noted: in vivo.
The nature of data set [2]: Acid dissociation value was evaluated. The format is ADME.
Data set [3] in a line: Half life of compound was determined. Type of data set: ADME.
Data set [4] in a line: Total clearance value was evaluated. The format is ADME, organism-based. As to conditions: in vivo.
Data set [5] concerns the target T1, Type-1 angiotensin II receptor (Homo sapiens) (UniProt P30556).
T1 sequence (whole entry): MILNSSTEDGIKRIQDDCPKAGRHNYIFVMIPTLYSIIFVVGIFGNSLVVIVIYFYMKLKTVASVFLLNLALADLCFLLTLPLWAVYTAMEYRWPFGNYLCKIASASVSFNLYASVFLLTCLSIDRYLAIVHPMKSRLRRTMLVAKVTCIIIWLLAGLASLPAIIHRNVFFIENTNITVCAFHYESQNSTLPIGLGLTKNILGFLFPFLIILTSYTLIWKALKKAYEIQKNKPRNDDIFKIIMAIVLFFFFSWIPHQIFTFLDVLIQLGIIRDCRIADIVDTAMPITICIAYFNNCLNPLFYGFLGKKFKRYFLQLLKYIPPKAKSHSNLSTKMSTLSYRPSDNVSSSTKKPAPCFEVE
Put plainly: Inhibition against Angiotensin II receptor, type 1.

Data set [6] has as its target T1, Type-1 angiotensin II receptor (Homo sapiens). Put plainly: Relative binding affinity of compound to Angiotensin II receptor, type 1 was determined.
Data set [7] can be described thus: Absolute bioavailability of compound was determined. Type of data set: ADME, organism-based. As to conditions: in vivo; read-out: Bioavailabiility.
Data set [8] in a line: Effective concentration of compound to stimulate 300% increase of growth hormone secretion. The format is functional.
Data set [9] concerns the target T2, Type-1 angiotensin II receptor (Homo sapiens, UniProt P30556).
T2 sequence (P30556 whole entry): T1 sequence (whole entry)
Put plainly: Compound was tested for inhibition against Angiotensin II receptor, type 1.

The target in a further data set is Phosphodiesterase 3 (Homo sapiens, UniProt Q14432+Q13370). Put plainly: Inhibition of phosphodiesterase 3(PDE 3). Type of data set: protein assay.
The next data set deals with Phosphodiesterase 4 (Homo sapiens, UniProt P27815+Q08499+Q07343+Q08493). In words: Inhibition of phosphodiesterase 4 (PDE 4). The format is protein assay.
In data set [10] the target is T2, Type-1 angiotensin II receptor. In words: Inhibition constant against Angiotensin II receptor, type 1 was determined.
The nature of data set [11]: Inhibition of bovine cAMP phosphodiesterase. More on the design: species or system Bos taurus.
A short description of data set [12]: Acid dissociation constant was evaluated. The format is ADME.
A short description of data set [13]: Inhibition of calcium calmodulin-dependent cGMP-Phosphodiesterase 1.
The nature of data set [14]: Inhibition of Phosphodiesterase 4.

Structures are written as SMILES.

In turn, `CCOc1nc2cccc(C(=O)O)c2n1Cc1ccc(-c2ccccc2-c2nnn[nH]2)cc1` displayed a CL_renal in data set [1] greater than 7 mL/s. Moreover, the pKa in data set [2] was found to be 3.9. Also, in [3], the half-life was greater than 9 h. In [4], this compound registered a CLtotal of 1 mL/s. This compound yielded an AT1 affinity in data set [5] of 0.1 nM l-1. Besides, the Relative binding affinity in [6] stood at 1.

In turn, `CCCc1nc2c(C)cc(-c3nc4ccccc4n3C)cc2n1Cc1ccc(-c2ccccc2C(=O)O)cc1` gave a CL_renal in data set [1] of less than 5 mL/s. In data set [2], the pKa was 4.5. This compound registered a half-life in [3] greater than 20 h. Besides, the bioavailability in data set [7] was 43%. Also, the CLtotal in [4] was determined as 19 mL/s. The compound further returned an AT1 affinity in [5] of 1 nM l-1. This compound also showed a Relative binding affinity in data set [6] of 10.

With `CCCCC(=O)N(Cc1ccc(-c2ccccc2-c2nnn[nH]2)cc1)[C@H](C(=O)O)C(C)C`, the CL_renal in data set [1] was 4.8 mL/s. In addition, the pKa in [2] is 3.1. This compound showed a half-life in data set [3] of 6.1 h. The CLtotal in data set [4] was 37 mL/s. The AT1 affinity in data set [5] was found to be 1.4 nM l-1.

On to `CNC(=O)NCc1ccccc1-c1ccc(CN2C(=O)[C@H](NC(=O)CC(C)(C)N)CCc3ccccc32)cc1`, for which, in data set [8], the EC50 stood at 3 nM.

`CCCCc1nc(Cl)c(C=O)n1Cc1ccc(-c2ccccc2-c2nn[nH]n2)cc1` returned a pKa in data set [2] of 4. In data set [5], this compound had an AT1 affinity of 20 nM l-1.

The compound `CC(C)(N)CC(=O)N[C@@H]1CCc2ccccc2N(Cc2ccc(-c3ccccc3-c3nn[nH]n3)cc2)C1=O` had a 50% effective concentration (EC50) in data set [8] of 3 nM.

In data set [9], `Cc1nc(C(=O)O)nc2c1CCC(=O)N2Cc1ccc(-c2ccccc2-c2nnn[nH]2)cc1` showed an IC50 of 11 nM.

In the case of `CCCCc1nc(SCc2ccc(-c3ccccc3-c3nn[nH]n3)cc2)c2ccccc2n1`, the IC50 at Phosphodiesterase 3 was 8000 nM; at Phosphodiesterase 4 it was 2900 nM.

`O=C(O)c1nc(CO)nc2c1CCC(=O)N2Cc1ccc(-c2ccccc2-c2nn[nH]n2)cc1`: the concentration for half-maximal inhibition (IC50) in [9] amounted to 44 nM.

In the case of `CC(O)CCC(=O)N(c1ccc(-c2ccccc2-c2nnn[nH]2)cc1)[C@H](C(=O)O)C(C)C` (stereo partly drawn), in data set [10], the Ki turned out to be 370 nM. This compound also registered a half-inhibitory concentration (IC50) in data set [9] of 470 nM.

Regarding `CCOc1nc2cccc(C(=O)OC(C)OC(=O)OC3CCCCC3)c2n1Cc1ccc(-c2ccccc2-c2nn[nH]n2)cc1` (stereo not drawn), the AT1 affinity in [6] stood at 280.

In the case of `CCCCc1nc(Cl)c(C(=O)O)n1Cc1ccc(-c2ccccc2-c2nn[nH]n2)cc1` [CARBOXYLIC ACID METABOLITE], the CL_renal in data set [1] turned out to be 0.4 mL/s. Moreover, the pKa in [2] is 2.8. In [3], this compound showed a half-life of 4.4 h. Moreover, the CLtotal in data set [4] is 0.78 mL/s. Besides, the AT1 affinity in data set [5] turned out to be 1.3 nM l-1. Besides, in [6], the Relative binding affinity was 10. Further, half-maximal inhibition in data set [11] (IC50) required 38900 nM.

In [12], `Cc1nc(C)c2c(O)cc(=O)n(Cc3ccc(-c4ccccc4-c4nnn[nH]4)cc3)c2n1` [ENOLTASOSARTAN] yielded a pKa of 9.4. This compound displayed a 50% inhibitory concentration (IC50) in data set [9] of 0.17 nM.

Regarding `CCCCc1ncc(/C=C(\Cc2cccs2)C(=O)O)n1Cc1ccc(C(=O)O)cc1` [EPROSARTAN], the CL_renal in data set [1] amounted to 0.6 mL/s. The pKa in [2] came out at 4. For the same compound, the half-life in data set [3] was 5 h. In data set [4], this compound gave a CLtotal of 2.5 mL/s. The same compound returned an AT1 affinity in [5] of 1.5 nM l-1. This compound yielded a Relative binding affinity in [6] of 100.

Regarding `CCCCC1=NC2(CCCC2)C(=O)N1Cc1ccc(-c2ccccc2-c2nnn[nH]2)cc1` [IRBESARTAN], the CL_renal in [1] was found to be 0.02 mL/s. The same compound returned a pKa in data set [2] of 4.7. Also, the half-life in data set [3] was 10 h. The same compound registered a CLtotal in [4] of 5.1 mL/s. In addition, the AT1 affinity in data set [5] turned out to be 1.3 nM l-1.

On to `CCCCc1nc(Cl)c(CO)n1Cc1ccc(-c2ccccc2-c2nn[nH]n2)cc1` [LOSARTAN POTASSIUM], for which, in data set [2], the pKa was 4.9.

Compound `CCCCc1nc(Cl)c(CO)n1Cc1ccc(-c2ccccc2-c2nnn[n-]2)cc1.[K+]` [LOSARTAN POTASSIUM] showed a CL_renal in data set [1] of 1.1 mL/s. The compound also had a half-life in data set [3] of 1.5 h. Further, in data set [4], the CLtotal was found to be 10 mL/s. In data set [5], this compound showed an AT1 affinity of 6.4 nM l-1. For the same compound, the Relative binding affinity in data set [6] worked out at 50. Besides, the IC50 in data set [13] came to 100000 nM; in data set [14] it was 26000 nM; in [11], 139000 nM.

`Cc1nc(C)c2c(n1)N(Cc1ccc(-c3ccccc3-c3nnn[nH]3)cc1)C(=O)CC2` [TASOSARTAN] displayed a pKa in data set [2] of 4. The compound further showed a half-life in data set [3] of 11 h. The same compound displayed an AT1 affinity in data set [5] of 1.2 nM l-1. The compound also yielded a Relative binding affinity in data set [6] of 20. The IC50 in [9] was found to be 32 nM.
